Experimental data published in US20150025139A1, “INGENOL MEBUTATE IN COMBINATION WITH CRYOTHERAPY FOR THE TREATMENT OF ACTINIC KERATOSIS” (LEO Laboratories Limited, priority 2012, published 2015).

Experiments:
[1] = Phase 3 study: adverse events related to trial medication; type: in vivo, human; conditions: face or scalp, week 11 data
Method: (§1) For safety, AEs and LSRs will be recorded. Local skin responses will be graded using a scale that was developed by the sponsor and used in the previous clinical studies. This is a defined grading scale to ensure that a clear and systematic assessment of LSRs is performed. The LSR Grading Scale employs a 0 to 4 scoring system for each category to be assessed with photographs and definitions of each grade. The LSR Grading Scale has been published previously.
Local skin responses will be converted into MedDRA preferred terms applying the following conversions seen below. These adverse events will be reported separately from adverse events recorded on the adverse event form in the CRF.
as §1, with “LSRs were” for “LSRs will be”, “responses were” for “responses will be”, “This was” for “This is”, “grade.” for “grade. The LSR Grading Scale has been published previously.”
The most common adverse effect is application site pain. None of the severe adverse events were related to trial medication. All adverse effects related to trial medication were resolved at week 11.

[2] = system: actinic keratosis, face and scalp; conditions: earlier Phase 3 studies, cited from earlier work
[3] = system: actinic keratosis (AK) lesions on the face or scalp; type: in vivo, human
Method: In the context of the present invention partial clearance of AKs are defined as 75% or greater reduction in the number of clinically visible AKs in the selected treatment area from baseline.
A Phase 3, multi-centre, randomised, two-arm, parallel group, double-blinded, vehicle-controlled, 12-month study is conducted (See FIG. 1). Eligible subjects with 4 to 8 clinically typical, visible and discrete AKs within a contiguous 25 cm^2 treatment area on the face and scalp will be randomised to one of two arms. Treatment Arm A will receive cryotherapy to all visible AKs (4-8 lesions, “baseline lesions”) in the selected treatment area then, after 2-4 weeks healing time, field treatment with ingenol mebutate (PEP005 Gel) 0.015% once daily for 3 consecutive days. Treatment Arm B will receive cryotherapy to all visible AKs (4-8 lesions, “baseline lesions”) in the selected treatment area then, after 3 weeks healing time, field treatment with vehicle gel once daily for 3 consecutive days.
Eligible subjects include male or female, at least 18 years of age, with 4 to 8 clinically typical, visible, and discrete AK lesions within a 25 cm^2 contiguous treatment area on the face or scalp. Exclusion criteria stipulate restrictions for prohibited treatments and procedures prior to study entry. This sample is representative of the population which will be treated for AK.
A Phase 3, multi-centre, randomised, two-arm, parallel group, double-blinded, vehicle-controlled, 12-month study is being conducted (See FIG. 1). Eligible subjects with 4 to 8 clinically typical, visible and discrete AKs within a contiguous 25 cm^2 treatment area on the face and scalp were randomised to one of two arms. Treatment Arm A received cryotherapy to all visible AKs (4-8 lesions, “baseline lesions”) in the selected treatment area then, after 2-4 weeks healing time, they received field treatment with ingenol mebutate (PEP005 Gel) 0.015% once daily for 3 consecutive days. […]

[4] = Phase 3 study: local skin responses (composite LSR score); type: in vivo, human
Method: as §1
The incidence and grade of LSRs in the LSR safety set will be summarized by treatment arm overall and at each visit by anatomical location. Local skin response grades will be summarized by frequency counts and descriptive statistics by treatment arm and visit for each of the six individual LSRs: erythema, flaking/scaling, crusting, swelling, vesiculation/pustulation, and erosion/ulceration.
A composite (sum) score will be obtained by summing the six individual LSR scores at each visit. The composite score and change from baseline will be summarized by treatment arm at each visit using descriptive statistics. The first visit at which the highest sum score is attained will be summarized by treatment arm. For those subjects whose LSR sum score increased in intensity from baseline, the first visit at which the LSR returned to the baseline intensity will be presented by treatment arm.
as §1, with “LSRs were” for “LSRs will be”, “responses were” for “responses will be”, “This was” for “This is”, “grade.” for “grade. The LSR Grading Scale has been published previously.”

Structure (SMILES): C/C=C(/C)C(=O)O[C@H]1C(C)=C[C@]23C(=O)[C@@H](C=C(CO)[C@@H](O)[C@]12O)[C@H]1[C@@H](C[C@H]3C)C1(C)C [ingenol mebutate]
- tolerability of treatment after cryosurgery [1]: well tolerated
- sustained clearance ([2]; 12 month following treatment): around 50%
- complete field clearance ([2]; face and scalp): 37-47%
- percentage of patients with complete clearance (no clinically visible AKs) ([3]; 72 h): 60.5%
- percentage of patients with partial clearance (75% or greater reduction in AKs) ([3]; 72 h): 77.8%
- Median percent reduction from baseline in AK lesion count ([3]; week 11): 100.0%
- composite LSR score at baseline ([4]; baseline, before cryosurgery and topical treatment): 2.2
- mean (SD) composite LSR score at peak ([4]; peak at visit 3): 8.5 (4.7)
- mean composite LSR score, course after topical treatment ([4]; week 5, 2 weeks after topical treatment): return to a score similar to that of earlier visits
